Laboratory results from US20160024052A1, “BENZIMIDAZOLE RETINOIC ACID RECEPTOR-RELATED ORPHAN RECEPTOR MODULATORS AND USES THEREOF” (INNOV17 LLC, priority 2014, published 2016).

What was measured:
Format in all cases: cell-based
Conditions in all cases: 72 h; human CD4+ T cells under TH17-polarizing conditions, 3 days, supernatant ELISA, 0.1% DMSO
IL-22 = experiment: Human TH17 cytokine inhibition measured by ELISA: IL-22
IL-17A = experiment: Human TH17 cytokine inhibition measured by ELISA: IL-17A
Description: (§1) Human TH17 Cytokine Inhibition as Measured by ELISA
(§2) Peripheral blood mononuclear cells (PBMCs) were sourced from freshly prepared leukocyte enriched plasma (buffy coat) from healthy donors (New York Blood Center). PBMCs were isolated by density gradient centrifugation using Ficoll-Paque™ PLUS (GE Healthcare). Human CD4+ T cells were seeded into 96-well plates (5×10^4 cells/well) and activated with plate-bound anti-human (h)-CD3 antibody and soluble h-aCD28 (both at lug/ml; eBioscience) and differentiated into TH17 cells with 20 ng/mL h-IL-6, 5 ng/mL h-TGF-β1, 10 ng/mL h-IL-23 (eBioscience) and 10 ng/mL IL-1β (Miltenyi Biotec) in serum-free TexMACS Medium (Miltenyi Biotec) supplemented with 1% Penicillin/Streptomycin (Lonza) for 3 days. CD4+ T cells propagated under TH17-polarizing conditions were cultured in the presence or absence of various concentrations of compounds with a final concentration of 0.1% DMSO. Supernatants were collected and stored at −20° C. until assayed for IL-17A, IL-17F and IL-21 levels by “Ready-Set-Go” ELISA kits (eBioscience) as per manufacturer's instructions. Endpoint absorbance was read at 450 nm using a microplate reader (Perkin Elmer).

IL-21 = experiment: Human TH17 cytokine inhibition measured by ELISA: IL-21
Description: as §1, §2

IL-17F = experiment: Human TH17 cytokine inhibition measured by ELISA: IL-17F
Description: as §1, §2

| SMILES | IC50 (IL-22) | IC50 (IL-17A) | IC50 (IL-21) | IC50 (IL-17F) |
| --- | --- | --- | --- | --- |
| O=C(c1ccccc1)N1CCC(Cn2cnc3cc(-c4cn[nH]c4)ccc32)CC1 [Example 7, (4-((5-(1H-pyrazol-4-yl)-1H-benzo[d]imidazol-1-yl)methyl)piperidin-1-yl)(phenyl)methanone] | < 10 µM | > 10 µM | < 10 µM | < 10 µM |
| O=C(Cc1ccccc1)N1CCC(Cn2cnc3cc(-c4cn[nH]c4)ccc32)CC1 [Example 8] | < 10 µM | > 10 µM | < 10 µM | < 10 µM |
| O=C(CCc1ccccc1)N1CCC(Cn2cnc3cc(-c4cn[nH]c4)ccc32)CC1 [Example 9, 1-(4-((5-(1H-pyrazol-4-yl)-1H-benzo[d]imidazol-1-yl)methyl)piperidin-1-yl)-3-phenylpropan-1-one] | < 10 µM | < 10 µM | < 10 µM | < 10 µM |
| O=C(CC1CCCCC1)N1CCC(Cn2cnc3cc(-c4cn[nH]c4)ccc32)CC1 [Example 10] | < 10 µM | < 10 µM | < 10 µM | < 10 µM |
| O=S(=O)(c1ccccc1)N1CCC(Cn2cnc3cc(-c4cn[nH]c4)ccc32)CC1 [Example 11, 1-((1-(phenylsulfonyl)piperidin-4-yl)methyl)-5-(1H-pyrazol-4-yl)-1H-benzo[d]imidazole] | < 10 µM | < 10 µM | < 10 µM | < 10 µM |
| O=S(=O)(Cc1ccccc1)N1CCC(Cn2cnc3cc(-c4cn[nH]c4)ccc32)CC1 [Example 12, 1-((1-(benzylsulfonyl)piperidin-4-yl)methyl)-5-(1H-pyrazol-4-yl)-1H-benzo[d]imidazole] | < 10 µM | < 10 µM | > 10 µM | < 10 µM |
